Measurements reported in patent US11000033B2, “Ketone or oxime compound, and herbicide” (NISSAN CHEMICAL CORPORATION, priority 2014, dated 2021).

Key:
Format in all cases: in vivo
Lolium multiflorum Lam. = test: Test Example 5: herbicidal effect by foliage application, plastic box (symbol K); settings: 320 g/ha, 3 weeks after application
Method in brief: (§1)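 Visual herbicidal score, taken three weeks post-application, of seedlings sprayed on the foliage with water-diluted emulsion at a predetermined amount; plants were 14 days old, greenhouse-raised at 25° C. to 30° C.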

wheat [1] = test: Test Example 4: effect on crop by soil treatment (symbol e); settings: for Effect on crop grade, e: wheat: application herbicide amount 320 g/ha; for e: wheat, effect grade on crop: 320 g/ha
Method in brief: (§2)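 Steps: fill box with sterilized diluvial soil; sow seed spot-like; cover with ~1.5 cm soil; grow in greenhouse (25° C. to 30° C.).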

Amaranthus retroflexus = test: Test Example 5: herbicidal effect by foliage application, plastic box (symbol N); settings: 320 g/ha, 3 weeks after application
Method in brief: as §1

[2] = tested on: Echinochloa crus-galli var. crus-galli; test: Test Example 5: herbicidal effect by foliage application, plastic box (symbol H); settings: 320 g/ha, 3 weeks after application
Method in brief: as §1

soybean [3] = test: Test Example 5: effect on crop by foliage application, plastic box (symbol d); settings: 320 g/ha, 3 weeks after application
Method in brief: (§3)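 Greenhouse culture at 25° C. to 30° C. followed spot-like sowing into sterilized diluvial soil, with seed covered by roughly 1.5 cm of soil.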

Chenopodium album = test: Test Example 5: herbicidal effect by foliage application, plastic box (symbol O); settings: 320 g/ha, 3 weeks after application
Method in brief: as §1

wheat [4] = test: Test Example 5: effect on crop by foliage application, plastic box (symbol e); settings: 320 g/ha, 3 weeks after application
Method in brief: as §3

Veronica persica = test: Test Example 5: herbicidal effect by foliage application, plastic box (symbol R); settings: 320 g/ha, 3 weeks after application
Method in brief: as §1

Monochoria vaginalis = test: Test Example 1: herbicidal activity, application before weed generation in submerged conditions (symbol C); settings: application herbicide amount 320 g/ha
Method in brief: (§4)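 Weeds are sown into submerged alluvial soil alongside transplanted 2.5-leaf rice, and the compound, as an emulsion diluted to a set rate, is applied onto the water before emergence. Rating on the 0–5 herbicidal-ratio scale follows 3 weeks of greenhouse growth at 25–30 °C.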

Digitaria ciliaris = test: Test Example 4: herbicidal effect by soil treatment (symbol F); settings: for Herbicidal effect grade, F: Digitaria ciliaris: application herbicide amount 320 g/ha; for F: Digitaria ciliaris, herbicidal effect grade: 320 g/ha
Method in brief: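 Seeds were sown in sterilized diluvial soil, covered with about 1.5 cm of soil, and the soil surface was sprayed with a water-diluted emulsion of the compound at a predetermined rate. Plants grew in a greenhouse at 25° C. to 30° C.; effects were scored visually 3 weeks after application.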

soybean [5] = test: Test Example 4: effect on crop by soil treatment (symbol d); settings: for Effect on crop grade, d: soybean: application herbicide amount 320 g/ha; for d: soybean, effect grade on crop: 320 g/ha
Method in brief: as §2

[6] = tested on: directly sowed rice plant; test: Test Example 3: effect on crop by foliage application, Wagner pot (symbol b); settings: application herbicide amount 320 g/ha; for b (directly sowed rice plant) effect on crop grade: Table 24
Method in brief: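 Wagner pot (1/10000 are), alluvial soil, submerged 0.1–0.5 cm; sown E. crus-galli var. crus-galli, L. chinensis, C. difformis, rice; greenhouse 25–30 °C.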

[7] = tested on: Echinochloa oryzacola Vasing.; test: Test Example 1: herbicidal activity, application before weed generation in submerged conditions (symbol A); settings: application herbicide amount 320 g/ha
Method in brief: as §4

rapeseed = test: Test Example 4: effect on crop by soil treatment (symbol g); settings: for Effect on crop grade, g: rapeseed: application herbicide amount 320 g/ha; for g: rapeseed, effect grade on crop: 320 g/ha
Method in brief: as §2

beet = test: Test Example 5: effect on crop by foliage application, plastic box (symbol f); settings: 320 g/ha, 3 weeks after application
Method in brief: as §3

Compound | K: Lolium multiflorum Lam., herbicidal effect grade (Lolium multiflorum Lam.) | Effect on crop grade, e: wheat (wheat [1]) | N: Amaranthus retroflexus, herbicidal effect grade (Amaranthus retroflexus) | H: Echinochloa crus-galli var. crus-galli, herbicidal effect grade [2] | d: soybean, effect on crop grade (soybean [3]) | O: Chenopodium album, herbicidal effect grade (Chenopodium album) | e: wheat, effect on crop grade (wheat [4]) | R: Veronica persica, herbicidal effect grade (Veronica persica) | C (Monochoria vaginalis) herbicidal effect grade (Monochoria vaginalis) | Herbicidal effect grade, F: Digitaria ciliaris (Digitaria ciliaris) | Effect on crop grade, d: soybean (soybean [5]) | b (directly sowed rice plant) effect on crop grade [6] | A (Echinochloa oryzacola Vasing.) herbicidal effect grade [7] | Effect on crop grade, g: rapeseed (rapeseed) | f: beet, effect on crop grade (beet) | K: Lolium multiflorum Lam., herbicidal effect (criteria 0-5) (Lolium multiflorum Lam.) | e: wheat, effect grade on crop (wheat [1]) | N: Amaranthus retroflexus, herbicidal effect (criteria 0-5) (Amaranthus retroflexus) | H: Echinochloa crus-galli var. crus-galli, herbicidal effect (criteria 0-5) [2] | d: soybean, effect on crop (criteria 0-5) (soybean [3]) | other results
CC#Cc1cc(C)c(C2=C(O)CC(CC(=NOCCOC)C3CC3)C2=O)c(C)c1 (stereo not drawn) [9-021] | 5 (Herbicidal ratio of 90% or more (almost completely withered)) | 3 (Herbicidal ratio of 40% or higher and lower than 70%) | 2 (Herbicidal ratio of 20% or higher and lower than 40%) | 5 (Herbicidal ratio of 90% or more (almost completely withered)) | 1 (Herbicidal ratio of 5% or higher and lower than 20%) | 3 (Herbicidal ratio of 40% or higher and lower than 70%) | 4 (Herbicidal ratio of 70% or higher and lower than 90%) | 4 (Herbicidal ratio of 70% or higher and lower than 90%) | 2 (Herbicidal ratio of 20% or higher and lower than 40%) | 5 (Herbicidal ratio of 90% or more (almost completely withered)) | 0 (Herbicidal ratio of 5% or lower (almost no effect)) | 5 (Herbicidal ratio of 90% or more (almost completely withered)) | 5 (Herbicidal ratio of 90% or more (almost completely withered)) | 2 (Herbicidal ratio of 20% or higher and lower than 40%) | 0 (Herbicidal ratio of 5% or lower (almost no effect)) | – | – | – | – | – | –
Cc1cc(Br)cc(C)c1C1=C(O)CC(CC(=O)C2CC2)C1=O (racemic) [10-004] | 5 (Herbicidal ratio of 90% or more (almost completely withered)) | 0 (Herbicidal ratio of 5% or lower (almost no effect)) | 0 (Herbicidal ratio of 5% or lower (almost no effect)) | 5 (Herbicidal ratio of 90% or more (almost completely withered)) | 0 (Herbicidal ratio of 5% or lower (almost no effect)) | 0 (Herbicidal ratio of 5% or lower (almost no effect)) | 4 (Herbicidal ratio of 70% or higher and lower than 90%) | 3 (Herbicidal ratio of 40% or higher and lower than 70%) | 0 (Herbicidal ratio of 5% or lower (almost no effect)) | 5 (Herbicidal ratio of 90% or more (almost completely withered)) | 0 (Herbicidal ratio of 5% or lower (almost no effect)) | 5 (Herbicidal ratio of 90% or more (almost completely withered)) | 5 (Herbicidal ratio of 90% or more (almost completely withered)) | 0 (Herbicidal ratio of 5% or lower (almost no effect)) | 0 (Herbicidal ratio of 5% or lower (almost no effect)) | – | – | – | – | – | –
CON=C(C)CC1CC(OC(=O)N(C)C)=C(c2c(C)cc(C)cc2C)C1=O (stereo not drawn) [1-108] | – | – | – | – | – | – | – | – | – | – | – | – | – | – | – | 5 (Herbicidal ratio of 90% or more (almost completely withered)) | 4 (Herbicidal ratio of 70% or higher and lower than 90%) | 5 (Herbicidal ratio of 90% or more (almost completely withered)) | 5 (Herbicidal ratio of 90% or more (almost completely withered)) | 3 (Herbicidal ratio of 40% or higher and lower than 70%) | O: Chenopodium album, herbicidal effect (criteria 0-5) (Chenopodium album): 0 (Herbicidal ratio of 5% or lower (almost no effect)); e: wheat, effect on crop (criteria 0-5) (wheat [4]): 3 (Herbicidal ratio of 40% or higher and lower than 70%); R: Veronica persica, herbicidal effect (criteria 0-5) (Veronica persica): 1 (Herbicidal ratio of 5% or higher and lower than 20%); Herbicidal effect grade, C: Monochoria vaginalis (Monochoria vaginalis): 3 (Herbicidal ratio of 40% or higher and lower than 70%); F: Digitaria ciliaris, herbicidal effect grade (Digitaria ciliaris): 5 (Herbicidal ratio of 90% or more (almost completely withered)); d: soybean, effect grade on crop (soybean [5]): 0 (Herbicidal ratio of 5% or lower (almost no effect)); effect on crop b (directly sowed rice plant), grade 0-5 [6]: 5 (Herbicidal ratio of 90% or more (almost completely withered)); Herbicidal effect grade, A: Echinochloa oryzacola Vasing. [7]: 5 (Herbicidal ratio of 90% or more (almost completely withered)); g: rapeseed, effect grade on crop (rapeseed): 4 (Herbicidal ratio of 70% or higher and lower than 90%); f: beet, effect on crop (criteria 0-5) (beet): 1 (Herbicidal ratio of 5% or higher and lower than 20%)
CON=C(C)CC1CC(OC(=O)c2cc(C)on2)=C(c2c(C)cc(C)cc2C)C1=O (stereo not drawn) [1-100] | – | – | – | – | – | – | – | – | – | – | – | – | – | – | – | 5 (Herbicidal ratio of 90% or more (almost completely withered)) | 5 (Herbicidal ratio of 90% or more (almost completely withered)) | 0 (Herbicidal ratio of 5% or lower (almost no effect)) | 5 (Herbicidal ratio of 90% or more (almost completely withered)) | 3 (Herbicidal ratio of 40% or higher and lower than 70%) | O: Chenopodium album, herbicidal effect (criteria 0-5) (Chenopodium album): 1 (Herbicidal ratio of 5% or higher and lower than 20%); e: wheat, effect on crop (criteria 0-5) (wheat [4]): 5 (Herbicidal ratio of 90% or more (almost completely withered)); R: Veronica persica, herbicidal effect (criteria 0-5) (Veronica persica): 3 (Herbicidal ratio of 40% or higher and lower than 70%); Herbicidal effect grade, C: Monochoria vaginalis (Monochoria vaginalis): 3 (Herbicidal ratio of 40% or higher and lower than 70%); F: Digitaria ciliaris, herbicidal effect grade (Digitaria ciliaris): 5 (Herbicidal ratio of 90% or more (almost completely withered)); d: soybean, effect grade on crop (soybean [5]): 2 (Herbicidal ratio of 20% or higher and lower than 40%); effect on crop b (directly sowed rice plant), grade 0-5 [6]: 5 (Herbicidal ratio of 90% or more (almost completely withered)); Herbicidal effect grade, A: Echinochloa oryzacola Vasing. [7]: 5 (Herbicidal ratio of 90% or more (almost completely withered)); g: rapeseed, effect grade on crop (rapeseed): 3 (Herbicidal ratio of 40% or higher and lower than 70%); f: beet, effect on crop (criteria 0-5) (beet): 0 (Herbicidal ratio of 5% or lower (almost no effect))
